According to US10961248B2, “Pesticidally active heterocyclic derivatives with sulfur containing substituents” (SYNGENTA PARTICIPATIONS AG, priority 2016, dated 2021):

Legend:
Type in all cases: in vivo
[1] = system: Myzus persicae (Green Peach Aphid); assay: Example B3: activity against Myzus persicae, roots of pea seedlings in test solution; details: 144 h, test rate 24 ppm, roots of infested pea seedlings in test solution, 6 days
Description: Roots of pea seedlings infested with an aphid population of mixed ages were placed directly in the aqueous test solutions prepared from 10'000 DMSO stock solutions. The samples were assessed for mortality 6 days after placing seedlings in test solutions.

[2] = system: Bemisia tabaci (Cotton White Fly); assay: Example B5: activity against Bemisia tabaci, sprayed cotton leaf discs; details: foliar, 144 h, application rate 200 ppm, adult white flies, 6 days after incubation
Description: Cotton leaf discs were placed on agar in 24-well microtiter plates and sprayed with aqueous test solutions prepared from 10'000 ppm DMSO stock solutions. After drying the leaf discs were infested with adult white flies. The samples were checked for mortality 6 days after incubation.

[3] = system: Myzus persicae (Green Peach Aphid); assay: Example B2: activity against Myzus persicae, sprayed sunflower leaf discs; details: foliar, 144 h, application rate 200 ppm, aphid population of mixed ages, 6 days after infestation
Description: Sunflower leaf discs were placed on agar in a 24-well microtiter plate and sprayed with aqueous test solutions prepared from 10'000 ppm DMSO stock solutions. After drying, the leaf discs were infested with an aphid population of mixed ages. The samples were assessed for mortality 6 days after infestation.

[4] = system: Spodoptera littoralis (Egyptian Cotton Leaf Worm); assay: Example B7: activity against Spodoptera littoralis, sprayed cotton leaf discs; details: foliar, 72 h, application rate 200 ppm, L1 larvae, 3 days after infestation
Description: Cotton leaf discs were placed onto agar in 24-well microtiter plates and sprayed with aqueous test solutions prepared from 10'000 ppm DMSO stock solutions. After drying the leaf discs were infested with five L1 larvae. The samples were assessed for mortality, anti-feeding effect, and growth inhibition in comparison to untreated samples 3 days after infestation. Control of Spodoptera littoralis by a test sample is given when at least one of the categories mortality, anti-feedant effect, and growth inhibition is higher than the untreated sample.

[5] = system: Plutella xylostella (Diamond Back Moth); assay: Example B1: activity against Plutella xylostella, artificial diet in 24-well plates; details: 120 h, application rate 200 ppm, L2 larvae on artificial diet, 5 days after infestation, read-out: effect in at least one of the two categories (mortality or growth inhibition)
Description: 24-well microtiter plates with artificial diet were treated with aqueous test solutions prepared from 10'000 ppm DMSO stock solutions by pipetting. After drying, the plates were infested with L2 larvae (10 to 15 per well). The samples were assessed for mortality and growth inhibition in comparison to untreated samples 5 days after infestation.

[6] = system: Frankliniella occidentalis (Western Flower Thrips); assay: Example B4: activity against Frankliniella occidentalis, sprayed sunflower leaf discs; details: foliar, 168 h, application rate 200 ppm, population of mixed ages, 7 days after infestation
Description: Sunflower leaf discs were placed on agar in 24-well microtiter plates and sprayed with aqueous test solutions prepared from 10'000 DMSO stock solutions. After drying the leaf discs were infested with a Frankliniella population of mixed ages. The samples were assessed for mortality 7 days after infestation.

[7] = system: Euschistus heros (Neotropical Brown Stink Bug); assay: Example B6: activity against Euschistus heros, sprayed soybean leaf; details: 120 h, application rate 200 ppm, N-2 nymphs, 5 days after infestation, read-out: effect in at least one of the two categories (mortality or growth inhibition)
Description: Soybean leaf on agar in 24-well microtiter plates were sprayed with aqueous test solutions prepared from 10'000 ppm DMSO stock solutions. After drying the leaf were infested with N-2 nymphs. The samples were assessed for mortality and growth inhibition in comparison to untreated samples 5 days after infestation.

[8] = system: Diabrotica Balteata (Corn Root Worm); assay: Example B7: activity against Diabrotica balteata, sprayed maize sprouts; details: 96 h, application rate 200 ppm, L2 larvae, 4 days after infestation, read-out: effect in at least one of the two categories (mortality or growth inhibition)
Description: Maize sprouts placed onto an agar layer in 24-well microtiter plates were treated with aqueous test solutions prepared from 10'000 ppm DMSO stock solutions by spraying. After drying, the plates were infested with L2 larvae (6 to 10 per well). The samples were assessed for mortality and growth inhibition in comparison to untreated samples 4 days after infestation.

CCS(=O)(=O)c1cc(N=S(C)(C)=O)cnc1-c1cn2cnc(C(F)(F)F)cc2n1 [P1, [5-ethylsulfonyl-6-[7-(trifluoromethyl)imidazo[1,2-c]pyrimidin-2-yl]-3-pyridyl]imino-dimethyl-oxo-λ^6-sulfane]
≥ 80%: mortality at 24 ppm [1] | mortality at 200 ppm [2] | mortality at 200 ppm [3] | percent control (mortality, anti-feedant effect or growth inhibition) at 200 ppm [4] | percent effect (mortality or growth inhibition) at 200 ppm [5] | mortality at 200 ppm [6] | percent effect (mortality or growth inhibition) at 200 ppm [7]

CCS(=O)(=O)c1cc(N=S2(=O)CCOCC2)cnc1-c1nc2cc(C(F)(F)F)ncc2n1C [P5, 4-[[5-ethylsulfonyl-6-[3-methyl-6-(trifluoromethyl)imidazo[4,5-c]pyridin-2-yl]-3-pyridyl]imino]-1,4-oxathiane 4-oxide]
≥ 80%: mortality at 24 ppm [1] | mortality at 200 ppm [2] | mortality at 200 ppm [3] | percent control (mortality, anti-feedant effect or growth inhibition) at 200 ppm [4] | percent effect (mortality or growth inhibition) at 200 ppm [5] | mortality at 200 ppm [6] | percent effect (mortality or growth inhibition) at 200 ppm [7]

CCS(=O)(=O)c1cc(N=S2(=O)CCCC2)cnc1-c1nc2cc(C(F)(F)F)ncc2n1C [P6, 1-[[5-ethylsulfonyl-6-[3-methyl-6-(trifluoromethyl)imidazo[4,5-c]pyridin-2-yl]-3-pyridyl]imino]thiolane 1-oxide]
≥ 80%: mortality at 24 ppm [1] | mortality at 200 ppm [2] | mortality at 200 ppm [3] | percent effect (mortality or growth inhibition) at 200 ppm [5] | mortality at 200 ppm [6] | percent effect (mortality or growth inhibition) at 200 ppm [7]

CCS(=O)(=O)c1cc(N=S(C)(=O)C2CC2)cnc1-c1cn2cnc(C(F)(F)F)cc2n1 (stereo not shown) [P8, cyclopropyl-[[5-ethylsulfonyl-6-[7-(trifluoromethyl)imidazo[1,2-c]pyrimidin-2-yl]-3-pyridyl]imino]-methyl-oxo-λ^6-sulfane]
≥ 80%: percent effect (mortality or growth inhibition) at 200 ppm [8] | mortality at 24 ppm [1] | mortality at 200 ppm [2] | mortality at 200 ppm [3] | percent control (mortality, anti-feedant effect or growth inhibition) at 200 ppm [4] | percent effect (mortality or growth inhibition) at 200 ppm [5] | mortality at 200 ppm [6] | percent effect (mortality or growth inhibition) at 200 ppm [7]

CCS(=O)(=O)c1cc(N=S(C)(=O)C2CC2)cnc1-n1cc2cnc(C(F)(F)F)cc2n1 (stereo not shown) [P12, cyclopropyl-[[5-ethylsulfonyl-6-[6-(trifluoromethyl)pyrazolo[4,3-c]pyridin-2-yl]-3-pyridyl]imino]-methyl-oxo-λ^6-sulfane]
≥ 80%: percent effect (mortality or growth inhibition) at 200 ppm [8] | mortality at 200 ppm [2] | mortality at 200 ppm [3] | percent control (mortality, anti-feedant effect or growth inhibition) at 200 ppm [4] | percent effect (mortality or growth inhibition) at 200 ppm [5] | mortality at 200 ppm [6] | percent effect (mortality or growth inhibition) at 200 ppm [7]

CCS(=O)(=O)c1cc(N=S2(=O)CCC2)cnc1-c1cn2cnc(C(F)(F)F)cc2n1 [P13, 1-[[5-ethylsulfonyl-6-[7-(trifluoromethyl)imidazo[1,2-c]pyrimidin-2-yl]-3-pyridyl]imino]thietane 1-oxide]
≥ 80%: mortality at 24 ppm [1] | mortality at 200 ppm [2] | mortality at 200 ppm [3] | percent control (mortality, anti-feedant effect or growth inhibition) at 200 ppm [4] | percent effect (mortality or growth inhibition) at 200 ppm [5] | mortality at 200 ppm [6] | percent effect (mortality or growth inhibition) at 200 ppm [7]

CCS(=O)(=O)c1cc(N=S(C)(C)=O)ccc1-c1cn2cnc(C(F)(F)F)cc2n1 [P14, [3-ethylsulfonyl-4-[7-(trifluoromethyl)imidazo[1,2-c]pyrimidin-2-yl]phenyl]imino-dimethyl-oxo-λ^6-sulfane]
≥ 80%: mortality at 24 ppm [1] | mortality at 200 ppm [2] | mortality at 200 ppm [3] | percent effect (mortality or growth inhibition) at 200 ppm [5] | percent effect (mortality or growth inhibition) at 200 ppm [7]

CCS(=O)(=O)c1cc(N=S(C)(=O)C2CC2)ccc1-c1cn2cnc(C(F)(F)F)cc2n1 (stereo not shown) [P15, cyclopropyl-[3-ethylsulfonyl-4-[7-(trifluoromethyl)imidazo[1,2-c]pyrimidin-2-yl]phenyl]imino-methyl-oxo-λ^6-sulfane]
≥ 80%: percent effect (mortality or growth inhibition) at 200 ppm [8] | mortality at 200 ppm [3] | percent effect (mortality or growth inhibition) at 200 ppm [5] | percent effect (mortality or growth inhibition) at 200 ppm [7]

CCS(=O)(=O)c1cc(N=S(C)C)cnc1-c1nc2cc(C(F)(F)F)ncc2n1C [P17, [5-ethylsulfonyl-6-[3-methyl-6-(trifluoromethyl)imidazo[4,5-c]pyridin-2-yl]-3-pyridyl]imino-dimethyl-λ^4-sulfane]
≥ 80%: percent effect (mortality or growth inhibition) at 200 ppm [8] | mortality at 200 ppm [3] | percent effect (mortality or growth inhibition) at 200 ppm [7]

CCS(CC)=Nc1cnc(-c2nc3cc(C(F)(F)F)ncc3n2C)c(S(=O)(=O)CC)c1 [P18]
≥ 80%: percent effect (mortality or growth inhibition) at 200 ppm [8] | mortality at 200 ppm [3] | percent effect (mortality or growth inhibition) at 200 ppm [7]

CCS(=O)(=O)c1cc(N=S(C)(=O)CC)cnc1-c1nc2cc(C(F)(F)F)ncc2n1C (stereo not shown) [P19, ethyl-[[5-ethylsulfonyl-6-[3-methyl-6-(trifluoromethyl)imidazo[4,5-c]pyridin-2-yl]-3-pyridyl]imino]-methyl-oxo-λ^6-sulfane]
≥ 80%: percent effect (mortality or growth inhibition) at 200 ppm [8] | mortality at 24 ppm [1] | mortality at 200 ppm [2] | mortality at 200 ppm [3] | percent effect (mortality or growth inhibition) at 200 ppm [5] | mortality at 200 ppm [6] | percent effect (mortality or growth inhibition) at 200 ppm [7]

CCSc1cc(N=S(C)(C)=O)cnc1-c1nc2cc(C(F)(F)F)ncc2n1C [P20, [5-ethylsulfanyl-6-[3-methyl-6-(trifluoromethyl)imidazo[4,5-c]pyridin-2-yl]-3-pyridyl]imino-dimethyl-oxo-λ^6-sulfane]
≥ 80%: percent effect (mortality or growth inhibition) at 200 ppm [8] | mortality at 24 ppm [1] | mortality at 200 ppm [3] | mortality at 200 ppm [6] | percent effect (mortality or growth inhibition) at 200 ppm [7]

CCS(=O)(=O)c1cc(N=S2(=O)CCOCC2)ccc1-c1nc2cc(C(F)(F)F)ncc2n1C [P21, 4-[3-ethylsulfonyl-4-[3-methyl-6-(trifluoromethyl)imidazo[4,5-c]pyridin-2-yl]phenyl]imino-1,4-oxathiane 4-oxide]
≥ 80%: mortality at 24 ppm [1] | mortality at 200 ppm [2] | percent effect (mortality or growth inhibition) at 200 ppm [7]

CCS(=O)(=O)c1cc(N=S2(=O)CCOCC2)cnc1-c1cn2cnc(C(F)(F)F)cc2n1 [P22, 4-[[5-ethylsulfonyl-6-[7-(trifluoromethyl)imidazo[1,2-c]pyrimidin-2-yl]-3-pyridyl]imino]-1,4-oxathiane 4-oxide]
≥ 80%: mortality at 24 ppm [1] | mortality at 200 ppm [2] | mortality at 200 ppm [3] | percent control (mortality, anti-feedant effect or growth inhibition) at 200 ppm [4] | percent effect (mortality or growth inhibition) at 200 ppm [5] | mortality at 200 ppm [6] | percent effect (mortality or growth inhibition) at 200 ppm [7]
